# Experimental data taken from ChEMBL document CHEMBL3045033, “Synthesis of new potential anticancer agents based on 4-thiazolidinone and oleanane scaffolds” (Med Chem Res, 2012).
# Where “and” joins values, the source holds several entries; their conditions need not be identical. Equal entries are not always repeated.
# Experiments:
# Assay type in all cases: functional
# TK-10 = test: Cytotoxicity against Homo sapiens (human) TK10 cells after 48 hr by SRB assay; conditions: TK-10, 48 h
# HCC 2998 = test: Cytotoxicity against Homo sapiens (human) HCC2998 cells after 48 hr by SRB assay; conditions: HCC 2998, 48 h
# MOLT-4 [1] = test: Cytotoxicity against Homo sapiens (human) MOLT4 cells after 48 hr by SRB assay; conditions: MOLT-4, 48 h
# U-251 = test: Cytotoxicity against Homo sapiens (human) U251 cells after 48 hr by SRB assay
# 786-0 = test: Cytotoxicity against Homo sapiens (human) 786-0 cells after 48 hr by SRB assay; conditions: 786-0, 48 h
# NCI-H460 = test: Cytotoxicity against Homo sapiens (human) NCI-H460 cells after 48 hr by SRB assay; conditions: NCI-H460, 48 h
# OVCAR-4 = test: Cytotoxicity against Homo sapiens (human) OVCAR4 cells after 48 hr by SRB assay; conditions: OVCAR-4, 48 h
# CAKI-1 = test: Cytotoxicity against Homo sapiens (human) Caki1 cells after 48 hr by SRB assay; conditions: CAKI-1, 48 h
# RXF 393 = test: Cytotoxicity against Homo sapiens (human) RXF393 cells at 10^-4 to 10^-8 M after 48 hr by SRB assay; conditions: RXF 393, 48 h, read-out: pTGI (converted)
# SN12C = test: Cytotoxicity against Homo sapiens (human) SN12C cells after 48 hr by SRB assay
# Malme-3M [2] = test: Cytotoxicity against Homo sapiens (human) MALME-3M cells after 48 hr by SRB assay; conditions: for CC50: read-out: pLC50 (the source's name) (converted)
# T47D = test: Cytotoxicity against Homo sapiens (human) T47D cells after 48 hr by SRB assay
# SF-268 [3] = test: Cytotoxicity against Homo sapiens (human) SF268 cells at 10^-4 to 10^-8 M after 48 hr by SRB assay; conditions: SF-268, 48 h, read-out: pTGI (converted)
# HOP-92 = test: Cytotoxicity against Homo sapiens (human) HOP92 cells after 48 hr by SRB assay; conditions: HOP-92, 48 h
# SK-MEL-2 = test: Cytotoxicity against Homo sapiens (human) SK-MEL-2 cells after 48 hr by SRB assay; conditions: SK-MEL-2, 48 h
# MCF7 = test: Cytotoxicity against Homo sapiens (human) MCF7 cells after 48 hr by SRB assay; conditions: MCF7, 48 h
# KM12 = test: Cytotoxicity against Homo sapiens (human) KM12 cells after 48 hr by SRB assay; conditions: KM12, 48 h
# HCT-116 [4] = test: Cytotoxicity against Homo sapiens (human) HCT116 cells after 48 hr by SRB assay; conditions: HCT-116, 48 h
# A549 = test: Cytotoxicity against Homo sapiens (human) A549 cells after 48 hr by SRB assay; conditions: A549, 48 h
# PC-3 [5] = test: Cytotoxicity against Homo sapiens (human) PC3 cells after 48 hr by SRB assay; conditions: PC-3, 48 h
# OVCAR-8 = test: Cytotoxicity against Homo sapiens (human) OVCAR8 cells after 48 hr by SRB assay; conditions: OVCAR-8, 48 h
# BT-549 = test: Cytotoxicity against Homo sapiens (human) BT549 cells after 48 hr by SRB assay; conditions: BT-549, 48 h
# MDA-MB-435 = test: Cytotoxicity against Homo sapiens (human) MDA-MB-435 cells at 10^-4 to 10^-8 M after 48 hr by SRB assay; conditions: MDA-MB-435, 48 h, read-out: pTGI (converted)
# RPMI-8226 [6] = test: Cytotoxicity against Homo sapiens (human) RPMI8226 cells at 10^-4 to 10^-8 M after 48 hr by SRB assay; conditions: RPMI-8226, 48 h, read-out: pTGI (converted)
# UACC-62 = test: Cytotoxicity against Homo sapiens (human) UACC62 cells after 48 hr by SRB assay; conditions: UACC-62, 48 h
# SF-268 [7] = test: Cytotoxicity against Homo sapiens (human) SF268 cells after 48 hr by SRB assay; conditions: SF-268, 48 h
# NCI-H522 = test: Cytotoxicity against Homo sapiens (human) NCI-H522 cells at 10^-4 to 10^-8 M after 48 hr by SRB assay; conditions: NCI-H522, 48 h, read-out: pTGI (converted)
# NCI-H23 = test: Cytotoxicity against Homo sapiens (human) NCI-H23 cells after 48 hr by SRB assay; conditions: NCI-H23, 48 h
# PC-3 [8] = test: Cytotoxicity against Homo sapiens (human) PC3 cells assessed as cellular growth at 10^-5 M after 48 hr by SRB assay relative to untreated control
# ACHN = test: Cytotoxicity against Homo sapiens (human) ACHN cells at 10^-4 to 10^-8 M after 48 hr by SRB assay; conditions: read-out: pTGI (converted)
# SF-295 = test: Cytotoxicity against Homo sapiens (human) SF295 cells after 48 hr by SRB assay; conditions: SF-295, 48 h
# HCT-15 = test: Cytotoxicity against Homo sapiens (human) HCT15 cells after 48 hr by SRB assay; conditions: HCT-15, 48 h
# HL-60(TB) = test: Cytotoxicity against Homo sapiens (human) HL-60(TB) cells after 48 hr by SRB assay; conditions: HL-60, 48 h
# HCT-116 [9] = test: Cytotoxicity against Homo sapiens (human) HCT116 cells at 10^-4 to 10^-8 M after 48 hr by SRB assay; conditions: HCT-116, 48 h, read-out: pTGI (converted)
# M14 = test: Cytotoxicity against Homo sapiens (human) M14 cells after 48 hr by SRB assay
# MDA-MB-231 = test: Cytotoxicity against Homo sapiens (human) MDA-MB-231 cells after 48 hr by SRB assay; conditions: MDA-MB-231, 48 h
# SR = test: Cytotoxicity against Homo sapiens (human) SR cells after 48 hr by SRB assay
# IGROV-1 = test: Cytotoxicity against Homo sapiens (human) IGROV1 cells at 10^-4 to 10^-8 M after 48 hr by SRB assay; conditions: IGROV-1, 48 h, read-out: pTGI (converted)
# K562 = test: Cytotoxicity against Homo sapiens (human) K562 cells assessed as cellular growth at 10^-5 M after 48 hr by SRB assay relative to untreated control
# RPMI-8226 [10] = test: Cytotoxicity against Homo sapiens (human) RPMI8226 cells assessed as cellular growth at 10^-5 M after 48 hr by SRB assay relative to untreated control
# Malme-3M [11] = test: Cytotoxicity against Homo sapiens (human) MALME-3M cells at 10^-4 to 10^-8 M after 48 hr by SRB assay; conditions: read-out: pTGI (converted)
# MOLT-4 [12] = test: Cytotoxicity against Homo sapiens (human) MOLT4 cells assessed as cellular growth at 10^-5 M after 48 hr by SRB assay relative to untreated control
compound,measurement,setting,value
COC(=O)[C@]12CCC(C)(C)C[C@H]1C1=CC[C@@H]3[C@@]4(C)CC/C(=N\O)C(C)(C)[C@@H]4CC[C@@]3(C)[C@]1(C)CC2,GI50,TK-10,33.9 µM
same,GI50,HCC 2998,22.9 µM
same,GI50,MOLT-4 [1],37.2 µM
same,GI50,"U-251; Homo sapiens, U-251, 48 h",19.1 µM
same,GI50,786-0,17.8 µM
same,GI50,NCI-H460,21.9 µM
same,GI50,OVCAR-4,30.2 µM
same,GI50,CAKI-1,19.5 µM
same,TGI,RXF 393,36.3 µM
same,GI50,SN12C,20.9 µM
same,CC50,Malme-3M [2],> 100 µM
same,GI50,T47D,25.1 µM
same,TGI,SF-268 [3],56.2 µM
same,GI50,HOP-92,19.1 µM
same,GI50,SK-MEL-2,64.6 µM
same,GI50,MCF7,20.4 µM
same,GI50,KM12,38.9 µM
same,GI50,HCT-116 [4],29.5 µM
same,GI50,A549,28.8 µM
same,GI50,PC-3 [5],20.4 µM
same,GI50,OVCAR-8,34.7 µM
same,GI50,BT-549,64.6 µM
same,TGI,MDA-MB-435,> 100 µM
same,TGI,RPMI-8226 [6],> 100 µM
same,GI50,UACC-62,22.4 µM
same,GI50,SF-268 [7],24 µM
same,TGI,NCI-H522,66.1 µM
same,GI50,NCI-H23,20 µM
same,Activity,PC-3 [8],38.63%
same,TGI,ACHN,41.7 µM
same,GI50,SF-295,17.8 µM
same,GI50,HCT-15,24 µM
same,GI50,HL-60(TB),58.9 µM
same,TGI,HCT-116 [9],56.2 µM
same,GI50,"M14; Homo sapiens, M14, 48 h",23.4 µM
same,GI50,MDA-MB-231,20.4 µM
same,GI50,"SR; Homo sapiens, SR, 48 h",26.9 µM
same,TGI,IGROV-1,> 100 µM
CC1(C)CC[C@@]23CC[C@]4(C)[C@@](OC2=O)([C@@H]3C1)[C@@H](Br)C[C@@H]1[C@@]2(C)CC/C(=N\O)C(C)(C)[C@@H]2CC[C@]14C,GI50,TK-10,18.6 µM
same,Activity,K562,21.17%
same,GI50,HCC 2998,81.3 µM
same,GI50,MOLT-4 [1],14.1 µM
same,GI50,"U-251; Homo sapiens, U-251, 48 h",22.4 µM
same,GI50,786-0,49 µM
same,GI50,NCI-H460,19.1 µM
same,GI50,OVCAR-4,11.5 µM
same,GI50,CAKI-1,28.2 µM
same,Activity,RPMI-8226 [10],38.33%
same,GI50,SN12C,37.2 µM
same,GI50,Malme-3M [2],3.02 µM
same,CC50,Malme-3M [2],> 100 µM
same,GI50,T47D,17.4 µM
same,TGI,SF-268 [3],> 100 µM
same,GI50,HOP-92,4.37 µM
same,GI50,SK-MEL-2,> 100 µM
same,GI50,MCF7,11.7 µM
same,GI50,KM12,8.91 µM
same,GI50,HCT-116 [4],19.1 µM
same,GI50,A549,17.8 µM
same,GI50,PC-3 [5],40.7 µM
same,GI50,OVCAR-8,8.51 µM
same,GI50,BT-549,9.33 µM
same,TGI,RPMI-8226 [6],> 100 µM
same,GI50,UACC-62,18.6 µM
same,GI50,SF-268 [7],27.5 µM
same,GI50,NCI-H23,38 µM
same,Activity,PC-3 [8],38.45%
same,TGI,Malme-3M [11],23.4 µM
same,TGI,ACHN,> 100 µM
same,GI50,SF-295,14.1 µM
same,Activity,MOLT-4 [12],20.29%
same,GI50,HCT-15,30.9 µM
same,GI50,HL-60(TB),> 100 µM
same,TGI,HCT-116 [9],> 100 µM
same,GI50,"M14; Homo sapiens, M14, 48 h",9.12 µM
same,GI50,MDA-MB-231,17.8 µM
same,GI50,"SR; Homo sapiens, SR, 48 h",2.14 µM
COC(=O)[C@]12CCC(C)(C)C[C@H]1C1=CC[C@@H]3[C@@]4(C)CC/C(=N\OC(=O)/C=C5/SC(=O)NC5=O)C(C)(C)[C@@H]4CC[C@@]3(C)[C@]1(C)CC2,Activity,K562,26.64%
same,GI50,U-251,6.76 µM and 1.78 µM
same,TGI,RXF 393,3.55 µM
same,Activity,RPMI-8226 [10],16.33%
same,TGI,SF-268 [3],10.7 µM
same,TGI,MDA-MB-435,9.12 µM
same,TGI,RPMI-8226 [6],6.03 µM
same,TGI,NCI-H522,5.62 µM
same,TGI,Malme-3M [11],7.76 µM
same,TGI,ACHN,3.39 µM
same,Activity,MOLT-4 [12],2.28%
same,TGI,HCT-116 [9],3.39 µM
same,GI50,M14,≥ 20 µM
same,GI50,SR,8.91 µM and 1.7 µM
same,TGI,IGROV-1,4.17 µM
